# Assay results from patent US6500819B2, “Bicyclolactam compounds, use thereof and intermediates for preparing thereof” (Taiho Pharmaceutical Company Limited, priority 1994, dated 2002).
# What was measured:
# [1] = test system: ddY mice; assay: Sedative effect (spontaneous locomotor activity), second part
# Description: Sedative Effect (Spontaneous locomotor activity)
# (§1) Compound 1′a-1, the comparison compound, diazepam or buspirone was suspended in a 0.5% sodium carboxymethyl cellulose solution, and the suspension was orally administered to 3- to 4-week-old male ddY mice (in groups of 5) in a volume of 10 ml/kg one hour before the start of experiment.
# The test was conducted with reference to a method described in “Evaluation of Medicinal Efficacies (1), Pharmacological Test Method (I), Basic Lectures on Development of Pharmaceuticals,” 50˜54(1971). More specifically, the group of mice were given the test drug and thereafter measured the amount of spontaneous locomotor activity for 10 minutes per mouse using Animex MK-110 (Muromachi Kikai Co., Ltd.).
# [2] = test system: ddY mice; assay: Acute toxicity test (number of deaths), second part; format: in vivo; conditions: 6 mice, observed for 3 days
# [3] = test system: ddY mice; assay: Muscle relaxant effect (traction method), second part
# Description: Muscle Relaxant Effect (Traction Method)
# as §1
# With reference to a method described in Japan. J. Pharmacol., 49. 337˜349(1989), the foreleg of the mouse was hung on a horizontal wire, having a diameter of 1.2 mm and fixed at a level of 30 cm, three times consecutively. […] Thus, ED5 0 was determined for evaluation. […] Diazepam and buspirone were 2.2 mg/kg and 427.8 mg/kg, respectively, in ED5 0.
# [4] = test system: ddY mice; assay: Effect on central nervous system depressant (ethanol enhancing method), second part
# Description: Effect on central nervous system depressant (Ethanol enhancing method)
# Compound 1′a-1, the comparison compound, diazepam or buspirone was suspended in a 0.5% sodium carboxymethyl cellulose solution, and the suspension was orally administered to 3- to 4-week-old male ddY mice (in groups of 6) in a volume of 10 ml/kg one hour before the start of experiment.
# The test was conducted with reference to a method described in Japan. J. Pharmacol., 49, 337˜349(1989). More specifically, the group of mice were intraperitoneally given 25% ethanol at a dose of 20 ml/kg and checked for the time interval between loss and recovery of the righting reflex.
# [5] = test system: ddY mice; assay: Anticonvulsant effect (pentylenetetrazol-induced convulsion method), second part; format: in vivo; conditions: for Anticonvulsant effect (in words): oral, dose of 300 mg/kg
# Description: Anticonvulsant Effect (Pentylenetetrazol-induced Convulsion Method)
# Compound 1′a-1, the comparison compound, diazepam or j buspirone was suspended, in a 0.5% sodium carboxymethyl cellulose solution, and the suspension was orally administered to 3- to 4-week-old maple ddY mice (in groups of 6) in a volume of 10 ml/kg one hour before the start of experiment.
# The test was conducted with reference to a method described in “Evaluation of Medicinal Efficacies (1), Pharmacological Test Method (I), Basic Lectures on Development of Pharmaceuticals,” 167˜172(1971).
# [6] = test system: Wistar rats; assay: Anticonflict test (second part, relieving rate of anxiety); format: in vivo; conditions: oral, dose of 1.0 mg/kg
# Description: (§2) Wistar rats (males weighing 140 to 160 g) were used for experiment in groups of 11 to 14.
# No water was supplied to the rats for 48 hours before the experiment. Upon lapse of first 24 hours, each group of rats were placed into the experimental box, permitted access to water for 30 seconds and caused to recognize the metal drinking tube. Upon lapse of further 24 hours with access to water prevented, the rats were placed into the box again and permitted access to water on condition that an electric current was passed between the metal drinking tube and the grid to give an electroshock for every 20 times of water drinking behavior to measure the frequency of water drinking behavior for 3 minutes. Anxiolytic effect was evaluated as relieving rate of anxiety as calculated by the following equation.
# [7] = test system: Wistar rats; assay: Elevated plus maze test; format: in vivo; conditions: 1 h before test, relative to control = 100
# Description: Wistar rats (males weighing 170 to 220 g) were used for experiment in groups of 4 to 9.
# The test compound, diazepam or buspirone was suspended in a 0.5 %) sodium carboxymethyl cellulose solution, and the suspension was orally given to the animal in a volume of 5 ml/kg one hour before the start of experiment.
# The test was conducted using an experimental device, Model BTA-2, Behavior Analysis System (product of Muromachi Kikai Co., Ltd.) with reference to a method described in Psychopharmacology, 99, 48˜53(1989). […] Each group of rats orally given the test drug were placed in the center square, and the behavior of the animals was recorded for 5 minutes using a behavior analyzer. The ratio of the number of entries into the open arm to the number of entries into all the arms was determined for evaluating the anxiolytic effect.
# The ratio of entries into the open arm is expressed by a value relative to the ratio attained by the control which is taken as 100.
# [8] = test system: Wistar rats; assay: Anticonflict test (first part, Test Example 1); format: in vivo
# Description: as §2
# The test compound, diazepam or buspirone was suspended in a 0.5 % sodiumn carboxymethyl cellulose solution, and the suspension was orally given to the animal in a volume of 5 mnl/kg one hour before the start of experiment.
# With reference to a method described in “Process in Anxiolytics and Antidepresants,” ediled by Showa Ueki and Tatsuo Furukawa, Ishiyaku Shuppansha, 56-59 (1981) , the agents were tested using experimental boxes having a grid floor and a metal drinking tube in the floor. No water was supplied to the rats for 48 hours before the experiment. Upon lapse of first 24 hours, each group of rats were placed into the experimental box, permitted access to water for 30 seconds and caused to recognize the metal drinking tube. Upon lapse of further 24 hours with access to water prevented, the rats were placed into the box again and permitted access to water on condition that an electric current was passed between the metal drinking tube and the grid to give an electroshock for every 20 times of water drinking behavior to measure the frequency of water drinking behavior for 3 minutes.
# The frequency is expessed by a value relative to the frequency of the control which is taken as 100.
compound,measurement,setting,value
"COc1ccc(C(=O)N2C(=O)CC[C@H]3[C@H](O)CC[C@H]32)cc1 (racemic) [Compound 1′a-1, (1RS, 6RS, 7RS)-7-hydroxy-2-(4-methoxybenzoyl)-2-azabicyclo-[4.3.0]nonan-3-one]",Sedative effect (in words),"[1]; mouse, in vivo, po, 300 mg/kg",no sedative effect
same,Number of death,[2]; dose 2000 mg/kg oral,0
same,Number of death,[2]; dose 3000 mg/kg oral,2
same,Muscle relaxant effect (in words),"[3]; mouse, in vivo, po, 300 mg/kg",no muscle relaxant effect
same,Ethanol enhancing effect (in words),"[4]; mouse, in vivo, po, 300 mg/kg",no ethanol enhancing effect
same,Anticonvulsant effect (in words),[5],no anticonvulsant effect
"COc1ccc(C(=O)N2C(=O)CC[C@@H]3[C@H]2CC[C@H]3OCc2ccccc2)cc1 (racemic) [Compound 4a-1, (1RS, 6RS, 7RS)-7-benzyloxy-2-(4-methoxybenzoyl)-2-azabicyclo[4.3.0]nonan-3-one]",melting point,,109.5 °C
"O=C1CC2(CCCC2)CC(=O)N1CCCCN1CCN(c2ncccn2)CC1 [Buspirone, buspirone, reference compound]",Anxiolytic effect in the anticonflict test (in words),[6],almost ineffective
same,"ED6O, sedative effect (spontaneous locomotor activity up to 50% of control)","[1]; male, ddY, mouse, in vivo, po, 1 h",149.7 mg/kg
same,Ratio of entries into open arm,[7]; dose 1.0 oral,98
same,Ratio of entries into open arm,[7]; dose 10.0 oral,93
same,Frequency of water drinking behavior,"[8]; dose 1.0 mg/kg oral, 1 h before test, value relative to control = 100",103%
same,Anxiolytic effect in the anticonflict test (in words),"[8]; oral, compounds at doses of 0.001 to 1.0 mg/kg",almost ineffective
same,ED50,"[5]; Mus musculus, 1 h, read-out: ED50, anticonvulsant effect (no death within 60 minutes)",≥ 300 mg/kg
"O=C1CC2CCCCC2N1 (stereo not drawn) [Comparison Compound, 2-azabicyclo[3.4.0]nonane-2-one]",Sedative effect (in words),"[1]; oral, dose of 300 mg/kg",no sedative effect
same,Muscle relaxant effect (in words),"[3]; oral, dose of 300 mg/kg",no muscle relaxant effect
same,Ethanol enhancing effect (in words),"[4]; oral, dose of 300 mg/kg",no ethanol enhancing effect
same,Anticonvulsant effect (in words),[5],no anticonvulsant effect
